Key:
Type in all cases: in vivo, Wistar rats
[1] = Urinary excretion after intravenous C3G
Description: (§1) Twenty-two male Wistar rats (Rattus Norvegicus, Harlan Italy S.r.l.), of same age (15 weeks), 293–390 g of body weight, were used. The rats were randomly divided into 5 groups, according to the time that elapsed after intravenous administration of the test compound, and one control group. Each time point was represented by four biological replicates. All animals were allowed to acclimate to the animal facility of the University of Trieste for at least 2 week before studies were initiated. The experimental design was vetted and approved by the bioethical committee of the University of Trieste (internal code 140PAS14), according to the provisions of the European Community Council Directive 2010/63/EU[39]. The methods were carried out in accordance with the approved guidelines. The animals (n = 22) were maintained in cages in a room at 23 ± 2 °C, 50–60% humidity with a 12-hour light-dark cycle. The night before the experiment, food was withdrawn from the cages but water was given ad libitum. On the day of the experiment, the rats were anesthetized with intra-peritoneal administration of tiletamine/zolazepam (1:1, 25 mg/kg body weight) and xylazine (10 mg/kg body weight). During anaesthesia (10 min in all cases), the heart and ventilation rate were monitored. The rats were placed on their backs, with the ventral side up and with the legs spread separately on a thermo-isolated support. The penis was extruded by sliding the prepuce downwards. The dorsal penis vein was then seen along both sides of the penis and exactly 10 min after anaesthesia 0.2 mL PBS without (control group) or with (treated group) 668 nmol cyanidin 3-glucoside (C3G) in PBS was injected using a 24-G hypodermic needle. Then the injection site was pressed with a swab for a few seconds, and the glans was encouraged to retract to prevent further bleeding. One min before sacrificing the rats, sodium heparin (0.1 ml, 500 IU) was injected again into the dorsal penis vein, exposed in the same way. […] Blood draining and excision of the organs were carried out according to the literature. In detail, blood was collected from the neck of rats hold upside down, immediately after their decapitation, which happened at the time points sharp. Exsanguination took 5 seconds; laparotomy and excision of the liver and the kidneys took 5 more seconds. The post-decapitation procedures were standardised. Urine was collected through the urinary bladder with a syringe before decapitation. Kidneys, liver and brain were washed with mQ water, immediately frozen in liquid nitrogen and stored at −80 °C.
(§2) Immediately after sampling, 5 mL of blood were transferred into ice-cold (−20 °C), deoxygenated aqueous 95% methanol in a ratio 1:9 (v/v). The urine was weighted and transferred into ice-cold, deoxygenated aqueous 95% methanol at a ratio of 1:9 (w/v). Frozen kidneys, liver and brain were grounded under cryogenic conditions (−196 °C) to 5 μm particles in a CryoMill (Retsch, Germany), using a single 25 mm i. d. steel ball (30 seconds, 25/sec frequency). The pulverized tissue was rapidly transferred (without thawing) into ice-cold, deoxygenated aqueous 95% methanol at a ratio of 1:9 (w/v). Cinnamic acid-d5, as internal standard, was dissolved in the aqueous methanol at concentration of 0.1 mg/L for the monitoring of the extraction protocol in biofluids and tissues.
(§3) All samples were extracted with an orbital shaker for 10 min at room temperature. The methanol extracts were then centrifuged for 5 min at 3600 rpm at 4 °C, decanted under a stream of nitrogen in 50 mL dark glass vessels and stored at −80 °C. Clean-up of extracted samples in methanol was performed by solid phase extraction (SPE), as previously described. Briefly, 5 mL of extracted samples were evaporated on a rotary evaporator and reconstituted in 10 mL of acidified water. Anthocyanins were extracted by solid-phase adsorption onto a hydrophobic matrix (Sep-Pak C18, 0.35 g, Waters, Milford, MA). […]

[2] = Plasma concentrations and pharmacokinetics after intravenous bolus of C3G (NCA and two-compartment model); conditions: male, Wistar, rat, plasma, iv; for concentration at 2 min: 2 min after i.v. 668 nmol C3G; for concentration at 2 min / concentration at 0.25 min / concentration at 5 min / concentration at 15 min / concentration at 20 min: mean ± SEM n=4; for AUC0-t / half-life: i.v. 668 nmol C3G; for AUC0-t: read-out: AUC0–20 (converted); for half-life: 668 nmol, read-out: Half life; for concentration at 0.25 min: 0.25 min after i.v. 668 nmol C3G; for concentration at 5 min: 5 min after i.v. 668 nmol C3G; for concentration at 15 min: 15 min after i.v. 668 nmol C3G; for concentration at 20 min: 20 min after i.v. 668 nmol C3G
Description: as §1, §2, §3

[3] = Brain concentrations and tissue pharmacokinetics after intravenous C3G; conditions: for AUC0-t: i.v. 668 nmol C3G
Description: as §1, §2, §3

[4] = Kidney concentrations and tissue pharmacokinetics after intravenous C3G; conditions: for MTTK (Mean Transit time in kidneys) / AUC0-t / half-life: kidneys; for half-life: iv
Description: as §1, §2, §3

[5] = Liver concentrations and tissue pharmacokinetics after intravenous C3G; conditions: for AUC0-t: i.v. 668 nmol C3G
Description: as §1, §2, §3

[6] = 0.25 min after i.v. 668 nmol C3G
[7] = 0.25–20 min after i.v. 668 nmol C3G
[8] = 0.25 min after i.v. 668 nmol C3G, mean ± SEM n=4
[9] = male, Wistar, rat, kidney, 668 nmol

Row | SMILES | Urine concentration [1, 6] | Urine concentration ([1]; 2 min after i.v. 668 nmol C3G) | Urine concentration ([1]; 5 min after i.v. 668 nmol C3G) | Urine concentration ([1]; 15 min after i.v. 668 nmol C3G) | Urine concentration ([1]; 20 min after i.v. 668 nmol C3G) | concentration at 2 min [2] | AUC0-t [2] | half-life [2] | concentration at 0.25 min [2] | concentration at 5 min [2] | concentration at 15 min [2] | concentration at 20 min [2] | Mean concentration in brain ([3]; 2 min after i.v. 668 nmol C3G) | Mean concentration in brain ([3]; 5 min after i.v. 668 nmol C3G) | Mean concentration in liver [5, 8] | Mean concentration in liver ([5]; 2 min after i.v. 668 nmol C3G) | Mean concentration in liver ([5]; 5 min after i.v. 668 nmol C3G) | Mean concentration in liver ([5]; 15 min after i.v. 668 nmol C3G) | Mean concentration in liver ([5]; 20 min after i.v. 668 nmol C3G) | AUC0-t ([5]; liver) | further results
1 | OC[C@H]1O[C@@H](Oc2cc3c(O)cc(O)cc3[o+]c2-c2cc(O)c(O)c(O)c2)[C@H](O)[C@@H](O)[C@@H]1O [D3G, Delphinidin-3-O-β-glucoside] | 20 ± 10 pmol/g | 30 ± 0 pmol/g | 50 ± 10 pmol/g | 20 ± 10 pmol/g | 30 ± 10 pmol/g | 12.8 ± 10.5 nM |  |  |  |  |  |  |  |  |  |  |  |  |  |  | 
2 | COc1cc(-c2[o+]c3cc(O)cc(O)c3cc2O[C@@H]2O[C@H](CO)[C@@H](O)[C@H](O)[C@H]2O)cc(OC)c1O [M3G, Malvidin-3-O-β-glucoside] | 28.35 ± 17.87 pmol/g | 9.57 ± 4.52 pmol/g | 5.15 ± 1.88 pmol/g | 3.17 ± 1.64 pmol/g |  | 95.8 ± 61.7 nM | 5.72 nM·h | 5.29 min | 9.13 ± 3.46 nM | 16.4 ± 13.1 nM | 3.67 ± 0.14 nM | 8.6 ± 3.88 nM |  |  |  |  |  |  |  |  | 
3 | OC[C@H]1O[C@@H](Oc2cc3c(O)cc(O)cc3[o+]c2-c2ccc(O)cc2)[C@H](O)[C@@H](O)[C@@H]1O [PG3G, Pelargonidin-3-O-β-glucoside] | 1.57 ± 0.40 pmol/g | 7.92 ± 2.59 pmol/g | 47.09 ± 4.16 pmol/g | 33.22 ± 16.09 pmol/g | 20.98 ± 5.61 pmol/g | 1.89 ± 0.17 nM | 0.673 nM·h | 44.7 min | 4.5 ± 0.62 nM | 2.01 ± 0.28 nM | 1.9 ± 0.19 nM | 1.55 ± 0.13 nM |  |  |  |  |  |  |  |  | 
4 | COc1cc(-c2[o+]c3cc(O)cc(O)c3cc2O[C@@H]2O[C@H](CO)[C@@H](O)[C@H](O)[C@H]2O)ccc1O [PN3G, Peonidin-3-O-β-glucoside] | 10 ± 0 pmol/g | 1480 ± 410 pmol/g | 6540 ± 330 pmol/g | 5670 ± 2240 pmol/g | 5160 ± 1110 pmol/g | 13.1 ± 2.35 nM | 2.91 nM·h | 8.16 min | 33.7 ± 5.51 nM | 12.3 ± 1.37 nM | 3.73 ± 0.94 nM | 3.4 ± 0.22 nM | 2.07 ± 1.18 pmol/g | 0.70 ± 0.30 pmol/g | 539.38 ± 71.33 pmol/g | 317.61 ± 35.86 pmol/g | 364.74 ± 44.85 pmol/g | 216.10 ± 36.06 pmol/g | 100.84 ± 6.33 pmol/g | 5610.12 pmol·min/g | Amounts found in brain (range over sampling times) [3, 7]: 0.37 to 2.07 pmol/g; Mean concentration in brain ([3]; 15 min after i.v. 668 nmol C3G): 0.40 ± 0.38 pmol/g; Mean concentration in brain ([3]; 20 min after i.v. 668 nmol C3G): 0.37 ± 0.13 pmol/g; MTTB (Mean Transit Time in the brain) ([3]; brain): 8.61 min; AUC0-t ([3]; brain): 17.10 pmol·min/g; half-life ([3]; male, Wistar, rat, brain, iv, 668 nmol): 15.6 min; Kp ([3]; male, Wistar, rat, intravenous, 668 nmol, brain vs plasma, read-out: AUC in brain as share of that in plasma): 0.0978; Mean concentration in kidneys [4, 8]: 1.99 ± 0.55 nmol/g; Mean concentration in kidneys ([4]; 2 min after i.v. 668 nmol C3G): 1.56 ± 0.18 nmol/g; Mean concentration in kidneys ([4]; 5 min after i.v. 668 nmol C3G): 0.85 ± 0.08 nmol/g; Mean concentration in kidneys ([4]; 15 min after i.v. 668 nmol C3G): 0.89 ± 0.22 nmol/g; Mean concentration in kidneys ([4]; 20 min after i.v. 668 nmol C3G): 0.90 ± 0.14 nmol/g; MTTK (Mean Transit time in kidneys) [4]: 23.11 min; AUC0-t ([4]; i.v. 668 nmol C3G): 20.36 nmol·min/g; Kp ([4]; male, Wistar, rat, kidney, intravenous, 668 nmol, kidneys vs plasma, read-out: AUC in kidneys relative to plasma): 116; half-life [4, 9]: 20.8 min; Amounts found in liver (range over sampling times) [5, 7]: 100.84 to 539.38 pmol/g; MTTL (Mean Transit Time in the liver) ([5]; liver): 3.93 min; Kp ([5]; male, Wistar, rat, intravenous, 668 nmol, liver vs plasma, read-out: AUC in liver relative to plasma): 32.1; half-life ([5]; male, Wistar, rat, liver, iv, 668 nmol, read-out: Half-life): 9.99 min
5 | COc1cc(-c2[o+]c3cc(O)cc(O)c3cc2O[C@@H]2O[C@H](CO)[C@@H](O)[C@H](O)[C@H]2O)cc(O)c1O [PT3G, Petunidin-3-O-β-glucoside] | 4.58 ± 2.84 pmol/g | 3.30 ± 1.59 pmol/g |  |  |  | 4.95 ± 3.16 nM |  |  | 2.2 ± 1.05 nM | 1.71 ± 1.39 nM |  |  | 1.15 ± 0.62 pmol/g | 1.01 ± 0.46 pmol/g | 1.23 ± 0.59 pmol/g | 2.42 ± 0.08 pmol/g | 1.09 ± 0.52 pmol/g | 1.60 ± 0.44 pmol/g | 3.06 ± 0.19 pmol/g | 33.85 pmol·min/g | Mean concentration in brain ([3]; 15 min after i.v. 668 nmol C3G): 2.45 ± 0.22 pmol/g; Mean concentration in brain ([3]; 20 min after i.v. 668 nmol C3G): 1.90 ± 0.60 pmol/g; AUC0-t ([3]; brain): 32.42 pmol·min/g; Mean concentration in kidneys [4, 6]: 0.00204 ± 0.00059 nmol/g; Mean concentration in kidneys ([4]; 2 min after i.v. 668 nmol C3G): 0.00282 ± 0.00028 nmol/g; Mean concentration in kidneys ([4]; 5 min after i.v. 668 nmol C3G): 0.0024 ± 0.00013 nmol/g; Mean concentration in kidneys ([4]; 15 min after i.v. 668 nmol C3G): 0.00229 ± 7e-05 nmol/g; Mean concentration in kidneys ([4]; 20 min after i.v. 668 nmol C3G): 0.00253 ± 0.00026 nmol/g; MTTK (Mean Transit time in kidneys) [4]: 187.44 min; AUC0-t ([4]; unit per footnote *): 48.13 ^* pmol g^–1 min^–1; half-life [4, 9]: 135 min
6 | COc1ccc(-c2[o+]c3cc(O)cc(O)c3cc2O[C@@H]2O[C@H](CO)[C@@H](O)[C@H](O)[C@H]2O)cc1O [isoPN3G] |  |  |  |  |  |  |  |  |  |  |  |  |  |  | 13.86 ± 4.32 pmol/g | 6.19 ± 2.09 pmol/g | 15.85 ± 1.82 pmol/g | 1.39 ± 1.14 pmol/g | 0.64 ± 0.25 pmol/g | 145.57 pmol·min/g | half-life ([5]; liver): 3.18 min; Peak relative to PN3G ([5]; liver only): around 2.59 % of PN3G

From article PMC4786809, “Determination of cyanidin 3-glucoside in rat brain, liver and kidneys by UPLC/MS-MS and its application to a short-term pharmacokinetic study” (Scientific Reports, 2016)
